Columns and labels:
[1] = test system: A-549 (Human Lung Cancer Cell Line); test: SRB antiproliferative assay, A-549; format: cell-based; conditions: Homo sapiens, A549, A-549, 48 h, read-out: GI50
Description: (§1) Following an extensive review of the literature, we selected human breast cancer (MCF-7, MDA-MB-231) and lung cancer (A549) cell lines to evaluate the anticancer potential of the synthesized compounds, and some compounds with good anti-proliferation activity were again tested to evaluate their cytotoxic potential on A-549, MCF-7, and MDA-MB-231. The same were also tested on one non-cancerous/normal (HEK-293) cell line. All the cell lines for the required screening were developed in a suitable medium comprising 10% FBS and 2mM L-glutamine. Cancerous and non-cancerous/normal cell lines were selected for the cell proliferation and cytotoxicity assay and maintained with 5% CO2 at 37 °C in a CO2 incubator with 100% relative humidity for one complete day before the addition of experimental drugs.
(§2) Antiproliferative activity through an SRB assay was performed for all the synthesized compounds on A-549 and MCF-7 cell lines. Around 5000 cells/well were quarantined into a 96-well microtiter plate in 100 μL. The synthesized compounds were solubilized in DMSO and diluted to different concentrations before use. The final-drug-concentration aliquots were poured into microtiter wells, and the plates were incubated for 48 h in regular conditions. After adding the final drug concentration, the cells were allowed to set in place and incubated for 60 min. A total of 50 µL of SRB solution (0.4% w/v) in 1% CH3COOH was poured into each well. The plates were then incubated for 20 min at RT. During subsequent staining, the unbounded dye was removed, and the plate reader recorded the eluted bound stain at 540 nm with a 690 nm reference wavelength. The assay was performed precisely using the appropriate reagents and reaction situation, as per the reported procedure. ADR was selected as the reference drug.

[2] = test system: MCF-7 (Human Breast Cancer Cell Line); test: SRB antiproliferative assay, MCF-7; format: cell-based; conditions: Homo sapiens, MCF7, MCF-7, 48 h, read-out: GI50
Description: as §1, §2

## COc1ccc(-c2cnn(CCCCCC(=O)NO)n2)cc1 [VI(i), N-Hydroxy-6-(4-(4-methoxyphenyl)-2H-1,2,3-triazol-2-yl)hexanamide]
[1]
  GI50: < 10 µg/mL
[2]
  GI50: < 10 µg/mL

Reference: PMC12389269, “Heteroaryl-Capped Hydroxamic Acid Derivatives with Varied Linkers: Synthesis and Anticancer Evaluation with Various Apoptosis Analyses in Breast Cancer Cells, Including Docking, Simulation, DFT, and ADMET Studies” (Pharmaceuticals, 2025)
